In patent US20110152236A1 (SANOFI-AVENTIS, priority 2008, published 2011) one finds IC50, percentages of inhibition and melting point data, which are given here for 26 compounds.

Each structure is given as a SMILES string.

The term IC50 denotes the concentration that inhibits the measured activity by half. As usually defined, the melting point is the temperature of the solid-liquid transition.

T2 sequence (P47746 whole entry): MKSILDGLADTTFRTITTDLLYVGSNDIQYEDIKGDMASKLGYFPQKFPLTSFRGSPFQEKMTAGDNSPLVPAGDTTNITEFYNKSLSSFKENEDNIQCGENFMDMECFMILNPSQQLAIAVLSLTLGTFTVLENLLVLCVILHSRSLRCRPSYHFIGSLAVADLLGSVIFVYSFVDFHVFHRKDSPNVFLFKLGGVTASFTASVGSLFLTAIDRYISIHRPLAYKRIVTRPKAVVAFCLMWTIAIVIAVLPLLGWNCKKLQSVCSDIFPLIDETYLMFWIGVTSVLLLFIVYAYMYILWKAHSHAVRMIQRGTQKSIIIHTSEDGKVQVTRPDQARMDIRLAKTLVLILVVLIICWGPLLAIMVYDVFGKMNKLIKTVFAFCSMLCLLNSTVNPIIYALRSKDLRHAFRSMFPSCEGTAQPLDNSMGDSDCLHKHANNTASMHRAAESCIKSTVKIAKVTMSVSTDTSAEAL

For the first data set, the target named is T1, human CB1 receptor (Homo sapiens, UniProt P21554).
T1 construct: U373MG cells naturally expressing the human CB1 receptor; endogenous in cells; host or cells: U373MG cells
T1 sequence (P21554 whole entry): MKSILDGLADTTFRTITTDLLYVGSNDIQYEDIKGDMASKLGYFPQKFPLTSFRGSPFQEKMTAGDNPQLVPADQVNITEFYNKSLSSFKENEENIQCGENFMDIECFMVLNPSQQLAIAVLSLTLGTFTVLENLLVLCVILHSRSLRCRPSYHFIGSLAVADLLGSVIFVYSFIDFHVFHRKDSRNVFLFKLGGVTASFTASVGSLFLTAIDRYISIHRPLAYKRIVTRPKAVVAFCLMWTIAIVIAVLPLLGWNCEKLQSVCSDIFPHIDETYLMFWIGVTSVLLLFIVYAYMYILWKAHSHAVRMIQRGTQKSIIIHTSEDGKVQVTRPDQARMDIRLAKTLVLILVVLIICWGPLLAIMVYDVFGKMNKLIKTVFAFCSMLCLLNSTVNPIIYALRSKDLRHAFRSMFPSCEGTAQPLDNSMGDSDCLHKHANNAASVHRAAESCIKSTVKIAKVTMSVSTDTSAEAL
In words: intracellular cyclic AMP test in U373MG cells (HTRF cAMP Dynamic Kit). In kind it is cell-based.
Conditions: not given
How it is done: The compounds according to the invention were the subject of pharmacological tests for determining the activity with respect to human cannabinoid CB1-type receptors. The efficacy of the compounds of formula (I) was determined in a functional test which measures cannabinoid CB1 receptor activity (intracellular cyclic AMP test). The test for detecting intracellular cyclic AMP in U373MG cells naturally expressing the human CB1 receptor was carried out as described in the following reference: Bouaboula et al., 1995, J. Biol. Chem. 270:13973-13980. The HTRF cAMP Dynamic Kit from CisBio was used to quantify the intracellular cyclic AMP. In this test, the IC50 values are between 0.001 μM and 2 μM.
With `CS(=O)(=O)N(c1cc(F)cc(C(=O)Nc2cc(C#N)ccn2)c1)C1CN(C(c2ccc(Cl)cc2)c2ccc(Cl)cc2)C1` [Compound 34], the half-maximal inhibitory concentration (IC50) stood at 20 nM.

`CC(NC(=O)c1cc(F)cc(N(C2CN(C(c3ccc(Cl)cc3)c3ccc(Cl)cc3)C2)S(C)(=O)=O)c1)c1ccccn1` (stereo not shown) [Compound 39] returned an IC50 of 33 nM.

The same data set, now with this note: U373MG cells naturally expressing the human CB1 receptor; intracellular cyclic AMP; read-out: IC50.
For the compound `CS(=O)(=O)N(c1cccc(C(=O)Nc2cc(O)ccn2)c1)C1CN(C(c2ccc(Cl)cc2)c2ccc(Cl)cc2)C1` [Compound 11, 3-[{1-[bis(4-chlorophenyl)methyl]azetidin-3-yl}(methylsulphonyl)amino]-N-(4-hydroxypyridin-2-yl)benzamide], the IC50 came out at 170 nM.

On to `CS(=O)(=O)N(c1cccc(C(=O)Nc2nonc2N)c1)C1CN(C(c2ccc(Cl)cc2)c2ccc(Cl)cc2)C1` [Compound 10, N-(4-amino-1,2,5-oxadiazol-3-yl)-3-[{1-[bis(4-chlorophenyl)methyl]azetidin-3-yl}(methylsulphonyl)amino]benzamide], for which the IC50 was 40 nM.

Regarding `CS(=O)(=O)N(c1cccc(C(=O)NCCn2cccn2)c1)C1CN(C(c2ccc(Cl)cc2)c2ccc(Cl)cc2)C1` [Compound 15, 3-[{1-[bis(4-chlorophenyl)methyl]azetidin-3-yl}(methylsulphonyl)amino]-N[2-(1H-pyrazol-1-yl)ethyl]benzamide], the concentration for half-maximal inhibition (IC50) was found to be 134 nM.

In the case of `CS(=O)(=O)N(c1cc(F)cc(C(=O)Nc2ccccn2)c1)C1CN(C(c2ccc(Cl)cc2)c2ccc(Cl)cc2)C1` [Compound 18, 3-[{1-[bis(4-chlorophenyl)methyl]azetidin-3-yl}(methylsulphonyl)amino]-5-fluoro-N-(pyridin-2-yl)benzamide], the IC50 came to 6 nM.

Another data set has as its target T2, cannabinoid CB1 receptor (Mus musculus, UniProt P47746).
T2 construct: from tissue; host or cells: whole animal (mice; male CD1 mice in the gastrointestinal transit model)
In words: model of inhibition of gastrointestinal transit induced by racemic CP55,940 in mice. It counts as in vivo. To be noted: 1 mg/kg per os; 3 hours after administration of the product; CP55,940 0.15 mg/kg ip; male CD1 mice. How it is done:
The antagonistic activity of the compounds was also shown by means of the model of inhibition of gastrointestinal transit induced by racemic CP55,940 (1RS,3RS,4RS-3-[hydroxy-2-(1,1-dimethylheptyl)phenyl]-4-(3-hydroxypropyl)cyclohexan-1-ol) in mice, according to the method described by Rinaldi-Carmona et al., J. Pharmacol, Exp. Ther. 2004, 310, 905-914. Briefly, male CD1 mice receive the test product per os 30 minutes or 2 hours before administration of the racemic CP55,940 agonist (1RS,3RS,4RS-3-[hydroxy-2-(1,1-dimethylheptyl)phenyl]-4-(3-hydroxypropyl)cyclohexan-1-ol) (0.15 mg/kg ip in 10% Cremophor). After a further 30 minutes, the animals receive a charcoal bolus po. Thirty minutes later, the animals are euthanized (CO2/O2) and the intestine is dissected. The progression of the charcoal bolus in the intestine is expressed as percentage of the total length of the intestine.
Compound `CS(=O)(=O)N(c1cc(F)cc(C(=O)Nc2cc(C#N)ccn2)c1)C1CN(C(c2ccc(Cl)cc2)c2ccc(Cl)cc2)C1` [Compound 34] displayed a percentages of inhibition of 46%.

Regarding `CC(NC(=O)c1cc(F)cc(N(C2CN(C(c3ccc(Cl)cc3)c3ccc(Cl)cc3)C2)S(C)(=O)=O)c1)c1ccccn1` (stereo not shown) [Compound 39], the percentages of inhibition was 66%.

Test system in the next data set: not given
Experiment: not given
Conditions: not given
On to `CS(=O)(=O)N(c1cccc(C(=O)NCc2cc(O)no2)c1)C1CN(C(c2ccc(Cl)cc2)c2ccc(Cl)cc2)C1`, for which the melting point is 209 °C.

`CS(=O)(=O)N(c1cccc(C(=O)NCc2nn[nH]n2)c1)C1CN(C(c2ccc(Cl)cc2)c2ccc(Cl)cc2)C1` [Compound 33, 3-[{1-[bis(4-chlorophenyl)methyl]azetidin-3-yl}(methylsulphonyl)amino]-N-(2H-tetrazol-5-ylmethyl)benzamide]: the melting point is 124 °C.

The compound `CS(=O)(=O)N(c1cccc(C(=O)Nc2ncccn2)c1)C1CN(C(c2ccc(Cl)cc2)c2ccc(Cl)cc2)C1` [Compound 8, 3-[{1-[bis(4-chlorophenyl)methyl]azetidin-3-yl}(methylsulphonyl)amino]-N-(pyrimidin-2-yl)-benzamide] showed a melting point of 137 °C.

Take `Cc1cccc(NC(=O)c2cc(F)cc(N(C3CN(C(c4ccc(Cl)cc4)c4ccc(Cl)cc4)C3)S(C)(=O)=O)c2)n1` [Compound 28, 3-[{1-[bis(4-chlorophenyl)methyl]azetidin-3-yl}(methylsulphonyl)amino]-5-fluoro-N-(6-methylpyridin-2-yl)benzamide]: the melting point was 176 to 178 °C.

On to `CS(=O)(=O)N(c1cccc(C(=O)Nc2n[nH]cc2C(N)=O)c1)C1CN(C(c2ccc(Cl)cc2)c2ccc(Cl)cc2)C1` [Compound 12, 3-[({3-[{1-[bis(4-chlorophenyl)methyl]azetidin-3-yl}(methylsulphonyl)amino]phenyl}carbonyl)-amino]-1H-pyrazole-4-carboxamide], for which the melting point stood at 174 °C.

The compound `CS(=O)(=O)N(c1cccc(C(=O)NCCc2ncccn2)c1)C1CN(C(c2ccc(Cl)cc2)c2ccc(Cl)cc2)C1` [Compound 16, 3-[{1-[bis(4-chlorophenyl)methyl]azetidin-3-yl}(methylsulphonyl)amino]-N-[2-(pyrimidin-2-yl)-ethyl]benzamide] yielded a melting point of 120 °C.

In the case of `Cc1cc(NC(=O)c2cc(F)cc(N(C3CN(C(c4ccc(Cl)cc4)c4ccc(Cl)cc4)C3)S(C)(=O)=O)c2)on1` [Compound 26, 3-[{1-[bis(4-chlorophenyl)methyl]azetidin-3-yl}(methylsulphonyl)amino]-5-fluoro-N-(3-methylisoxazol-5-yl)benzamide], the melting point was in the range of 224 to 226 °C.

Compound `CS(=O)(=O)N(c1cccc(C(=O)Nc2cc(O)ccn2)c1)C1CN(C(c2ccc(Cl)cc2)c2ccc(Cl)cc2)C1` [Compound 11, 3-[{1-[bis(4-chlorophenyl)methyl]azetidin-3-yl}(methylsulphonyl)amino]-N-(4-hydroxypyridin-2-yl)benzamide] displayed a melting point of 208 °C.

As for `N#Cc1ccnc(NC(=O)c2cc(F)cc(NS(=O)(=O)CC3CN(C(c4ccc(Cl)cc4)c4ccc(Cl)cc4)C3)c2)c1` [Compound 34, 3-({1-[bis(4-chlorophenyl)methyl]azetidin-3-yl}methylsulphonylamino)-N-(4-cyanopyridin-2-yl)-5-fluorobenzamide], the melting point was 165 °C.

`CS(=O)(=O)N(c1cccc(C(=O)NCc2nc[nH]n2)c1)C1CN(C(c2ccc(Cl)cc2)c2ccc(Cl)cc2)C1` [Compound 13, 3-[{1-[Bis(4-chlorophenyl)methyl]azetidin-3-yl}(methylsulphonyl)amino]-N-(1H-1,2,4-triazol-3-ylmethyl)benzamide] yielded a melting point of 210 °C.

`CS(=O)(=O)N(c1cccc(C(=O)Nc2nnc(C3CC3)s2)c1)C1CN(C(c2ccc(Cl)cc2)c2ccc(Cl)cc2)C1` [Compound 6, 3-[{1-[bis(4-chlorophenyl)methyl]azetidin-3-yl}(methylsulphonyl)amino]-N-(5-cyclopropyl-1,3,4-thiadiazol-2-yl)benzamide] gave a melting point of 226 °C.

As to `CS(=O)(=O)N(c1cccc(C(=O)NCc2cc[nH]n2)c1)C1CN(C(c2ccc(Cl)cc2)c2ccc(Cl)cc2)C1` [Compound 14, 3-[{1-[Bis(4-chlorophenyl)methyl]azetidin-3-yl}(methylsulphonyl)amino]-N-(1H-pyrazol-3-ylmethyl)benzamide], the melting point turned out to be 224 °C.

In turn, `CS(=O)(=O)N(c1cccc(C(=O)Nc2cc[nH]n2)c1)C1CN(C(c2ccc(Cl)cc2)c2ccc(Cl)cc2)C1` [Compound 9, 3-[{1-[bis(4-chlorophenyl)methyl]azetidin-3-yl}(methylsulphonyl)amino]-N-(1H-pyrazol-3-yl)-benzamide] returned a melting point of 150 °C.

In turn, `CS(=O)(=O)N(c1cccc(C(=O)Nc2nonc2N)c1)C1CN(C(c2ccc(Cl)cc2)c2ccc(Cl)cc2)C1` [Compound 10, N-(4-amino-1,2,5-oxadiazol-3-yl)-3-[{1-[bis(4-chlorophenyl)methyl]azetidin-3-yl}(methylsulphonyl)amino]benzamide] registered a melting point of 255 °C.

The compound `Cc1cc(NC(=O)c2cc(F)cc(N(C3CN(C(c4ccc(Cl)cc4)c4ccc(Cl)cc4)C3)S(C)(=O)=O)c2)no1` [Compound 21, 3-[{1-[Bis(4-chlorophenyl)methyl]azetidin-3-yl)(methylsulphonyl)amino]-5-fluoro-N-(5-methylisoxazol-3-yl)benzamide] gave a melting point of 222 to 224 °C.

Compound `CS(=O)(=O)N(c1cc(F)cc(C(=O)Nc2cnoc2)c1)C1CN(C(c2ccc(Cl)cc2)c2ccc(Cl)cc2)C1` [Compound 24, 3-[{1-[bis(4-chlorophenyl)methyl]azetidin-3-yl}(methylsulphonyl)amino]-5-fluoro-N-(isoxazol-4-yl)benzamide] displayed a melting point of 234 to 236 °C.

`Cc1ccnc(NC(=O)c2cc(F)cc(N(C3CN(C(c4ccc(Cl)cc4)c4ccc(Cl)cc4)C3)S(C)(=O)=O)c2)c1` [Compound 27, 3-[{1-[bis(4-chlorophenyl)methyl]azetidin-3-yl}(methylsulphonyl)amino]-5-fluoro-N-(4-methylpyridin-2-yl)benzamide] returned a melting point of 184 to 186 °C.

For `CS(=O)(=O)N(c1cccc(C(=O)NCCn2cccn2)c1)C1CN(C(c2ccc(Cl)cc2)c2ccc(Cl)cc2)C1` [Compound 15, 3-[{1-[bis(4-chlorophenyl)methyl]azetidin-3-yl}(methylsulphonyl)amino]-N[2-(1H-pyrazol-1-yl)ethyl]benzamide], the melting point came to 264 °C.

`CS(=O)(=O)N(c1cc(F)cc(C(=O)Nc2ccon2)c1)C1CN(C(c2ccc(Cl)cc2)c2ccc(Cl)cc2)C1` [Compound 17, 3-[{1-[bis(4-chlorophenyl)methyl]azetidin-3-yl}(methylsulphonyl)amino]-5-fluoro-N-(isoxazol-3-yl)benzamide] came in with a melting point of 219 to 221 °C.

`CS(=O)(=O)N(c1cccc(C(=O)Nc2nc(N)n[nH]2)c1)C1CN(C(c2ccc(Cl)cc2)c2ccc(Cl)cc2)C1` [Compound 31, N-(3-amino-1H-1,2,4-triazol-5-yl)-3-[{1-[bis(4-chlorophenyl)methyl]azetidin-3-yl}(methylsulphonyl)amino]benzamide] came in with a melting point of 222 °C.

As to `CS(=O)(=O)N(c1cccc(C(=O)Nc2ccc(N)nc2)c1)C1CN(C(c2ccc(Cl)cc2)c2ccc(Cl)cc2)C1` [Compound 30, N-(6-aminopyridin-3-yl)-3-[{1-[bis(4-chlorophenyl)methyl]azetidin-3-yl}(methylsulphonyl)amino]benzamide], the melting point came out at 210 °C.

`CS(=O)(=O)N(c1cccc(C(=O)Nc2nccs2)c1)C1CN(C(c2ccc(Cl)cc2)c2ccc(Cl)cc2)C1` [Compound 1, 3-[{1-[Bis(4-chlorophenyl)methyl]azetidin-3-yl}(methylsulphonyl)amino]-N-(1,3-thiazol-2-yl)benzamide] returned a melting point of 244 °C.

`Cn1cc(O)nc1NC(=O)c1cccc(N(C2CN(C(c3ccc(Cl)cc3)c3ccc(Cl)cc3)C2)S(C)(=O)=O)c1` [Compound 4, 3-[{1-[bis(4-chlorophenyl)methyl]azetidin-3-yl}(methylsulphonyl)amino]-N-(4-hydroxy-1-methyl-1H-imidazol-2-yl)benzamide] had a melting point of 134 °C.
